Laboratory results from PMC11073428, “The activity of pyrazolo[4,3-e][1,2,4]triazine and pyrazolo[4,3-e]tetrazolo[1,5-b][1,2,4]triazine sulphonamide derivatives in monolayer and spheroid breast cancer cell cultures” (Journal of Enzyme Inhibition and Medicinal Chemistry, 2024).

Legend:
[1] = system: MCF-7 breast cancer cells; assay: Apoptosis, annexin V-FITC/PI flow cytometry, MCF-7; type: cell-based, human; conditions: 24 h
Method: The analysis was performed using flow cytometry Apoptosis Detection Kit II (BD Biosciences, San Diego, CA) as described previously.

[2] = system: ROS in MCF-7 cells; assay: Total ROS activity, flow cytometry, MCF-7; type: cell-based, human; conditions: for cells that generated ROS: 24 h
Method: In brief, cells were washed two times with cold PBS solution and incubated in a solution of ROS Green dye in Assay Buffer and incubated for 1 h in optimal cell growth parameters, protected from light. After incubation, cells were washed with assay buffer. Subsequently, fluorescence emission intensities at 490 nm excitation and 520 nm emission were recorded in 500 μL assay buffer using flow cytometer BD FACSCanto II flow cytometer and FACSDiva software (BD Biosciences Systems, San Jose, CA).

[3] = system: NF-κB in MCF-7 cells; assay: Anti-NF-κB antibody flow cytometry, MCF-7; type: cell-based, human; conditions: 24 h, control 97.2 ± 0.6%
Method: (§1) To evaluate the molecular mechanism of induction of apoptosis of tested compounds, the level of p53, NF-κB, mTOR, Bax, and beclin-1 was measured using appropriate antibody according to the manufacturer’s instruction. In brief, tryspinised cells were centrifuged, then supernatant was discarded, and cells were suspended in 4% FA (formaldehyde). Prepared samples were incubated 15 min at RT. Following incubation, the 2.5 mL PBS was added to each sample and centrifuged. Then, supernatant was discarded, and cells were resuspended in 90% ice-cold methanol to perform permeabilisation and left for 1 h in ice. To remove methanol, cells were rinsed with excess PBS by centrifugation. Following centrifugation, the supernatant was discarded. Then, cells were resuspended in 100 µL of appropriate diluted (1:100 in PBS) antibody conjugate (p53 (7F5) Rabbit mAb – Alexa Fluor 488 Conjugate #5429 Cell Signalling Technology, Danvers, MA; NF-κB p65 (D14E12) XP Rabbit mAb – Alexa Fluor 647 Conjugate #8801 Cell Signalling Technology, Danvers, MA; mTOR (7C10) Rabbit mAB – Alexa Fluor 647 #5048 Cell Signalling Technology, Danvers, MA; FITC Anti-Bax antibody (T22-A) #ab139543, Abcam, Cambridge, UK) and incubated 1 h in the dark at RT. Afterwards, cells were washed by centrifugation in 2 mL of incubation buffer. Finally, supernatant was removed and 300 µL PBS was added to each sample and pipetted. […]

[4] = system: NF-κB in MDA-MB-231 cells; assay: Anti-NF-κB antibody flow cytometry, MDA-MB-231; type: cell-based, human; conditions: 24 h
Method: as §1

[5] = system: Bax in MDA-MB-231 cells; assay: Anti-Bax antibody flow cytometry, MDA-MB-231; type: cell-based, human; conditions: 24 h
Method: To evaluate the molecular mechanism of induction of apoptosis of tested compounds, the level of p53, NF-κB, mTOR, Bax, and beclin-1 was measured using appropriate antibody according to the manufacturer’s instruction. In brief, tryspinised cells were centrifuged, then supernatant was discarded, and cells were suspended in 4% FA (formaldehyde). Prepared samples were incubated 15 min at RT. Following incubation, the 2.5 mL PBS was added to each sample and centrifuged. Then, supernatant was discarded, and cells were resuspended in 90% ice-cold methanol to perform permeabilisation and left for 1 h in ice. To remove methanol, cells were rinsed with excess PBS by centrifugation. Following centrifugation, the supernatant was discarded. Then, cells were resuspended in 100 µL of appropriate diluted (1:100 in PBS) antibody conjugate (p53 (7F5) Rabbit mAb – Alexa Fluor 488 Conjugate #5429 Cell Signalling Technology, Danvers, MA; NF-κB p65 (D14E12) XP Rabbit mAb – Alexa Fluor 647 Conjugate #8801 Cell Signalling Technology, Danvers, MA; mTOR (7C10) Rabbit mAB – Alexa Fluor 647 #5048 Cell Signalling Technology, Danvers, MA; FITC Anti-Bax antibody (T22-A) #ab139543, Abcam, Cambridge, UK) and incubated 1 h in the dark at RT. Afterwards, cells were washed by centrifugation in 2 mL of incubation buffer. Finally, supernatant was removed and 300 µL PBS was added to each sample and pipetted. The analysis was performed by flow cytometry (BD FACSCanto II, Becton Dickinson Biosciences Systems, San Jose, CA) using FACSDiva software ver. 6.1.3.

[6] = system: p53 in MCF-7 cells; assay: Anti-p53 antibody flow cytometry, MCF-7; type: cell-based, human; conditions: MCF-7, 0.25 µM and 0.5 µM, 24 h
Method: as §1

[7] = system: caspase 10 in MCF-7 cells; assay: Activity of caspase 10, MCF-7; type: cell-based, human; conditions: 24 h
Method: (§2) MCF-7 and MDA-MB-231 cells were plated in six-well plates at density 1 × 10^6 and cultured in DMEM for 24 h. […] Then to identify the involvement of caspase family in inducing apoptosis, cells were pre-treated with Z-VAD-FMK (100 µM) 2 h before adding compounds[28]. The activation of caspases 9, 10, and 3/7 was detected as described before.

[8] = system: caspase 3/7 in MDA-MB-231 cells; assay: Activity of caspase 3/7, MDA-MB-231; type: cell-based, human; conditions: 24 h
Method: as §2

[9] = system: MCF-7 breast cancer cells; assay: Autophagy Assay, Red, flow cytometry, MCF-7; type: cell-based, human
Method: The effect of novel compound 3b at 0.25 µM and 0.5 µM concentration on the induction of autophagy in MCF-7 and MDA-MB-231 pre-treated 1 h with or not autophagy inhibitor 3-MA for 1 h (3-methyladenine, Sigma-Aldrich, St. Louis, MO) at 1 mM concentration[29] was assessed by ICT’s Autophagy Assay, Red using a flow cytometer. The test was performed as previously. Briefly, cells were washed with PBS and suspended in 490 µL of PBS. To each probe, 10 µL of diluted Autophagy Probe, Red solution was added. Prepared samples were incubated at 37 °C for 60 min. Following incubation, cells were suspended in diluted cellular assay buffer and centrifuged. Then, supernatant was removed, and cells were resuspended in diluted cellular assay buffer and centrifuged again. This step was repeated three times. Finally, cell pellet was resuspended in 0.5 mL of diluted cellular assay buffer. The analysis was performed with a flow cytometer (excitation/emission 590 nm/620 nm).

[10] = system: mTOR in MCF-7 cells; assay: Anti-mTOR antibody flow cytometry, MCF-7; type: cell-based, human; conditions: MCF-7, 0.25 µM and 0.5 µM, 24 h
Method: as §1

[11] = system: mTOR in MDA-MB-231 cells; assay: Anti-mTOR antibody flow cytometry, MDA-MB-231; type: cell-based, human; conditions: MDA-MB-231, 0.25 µM and 0.5 µM, 24 h
Method: as §1

[12] = system: beclin-1 in MCF-7 cells; assay: Anti-beclin-1 antibody flow cytometry, MCF-7; type: cell-based, human; conditions: MCF-7, 0.5 µM, 24 h
Method: The fixation and permeabilisation were performed as described above. Cells were resuspended in 100 µL of diluted primary antibody (1:100 in PBS, anti-beclin 1 antibody (2A4) #ab114071, Abcam, Cambridge, UK) and incubated 30 min in the dark at RT. The cells were washed three times by centrifugation in PBS. Then to each probe, 100 µL of diluted fluorochrome-labelled secondary antibody (1:100 in PBS; goat anti-mouse IgG H&L – Alexa Fluor 488 #ab150113, Abcam, Cambridge, UK) was added and incubated 30 min in dark at RT. Then, cells were rinsed with 2.5 mL PBS. In the last step, supernatant was discarded and cells were resuspended in 300 µL PBS and pipetted. The analysis was carried out by flow cytometry.

[13] = system: MCF-7 breast cancer cells; assay: MTT viability assay, MCF-7
Method: (§3) Following 24-h incubation with tested compounds, the medium was discarded from the cell cultures. Then, into each well with cells was added 1 mL of PBS and 50 µL of MTT solution (5 mg per mL). Cells were incubated at 37 °C and 5% CO2 in humidified atmosphere for a defined time appropriate for each cell line. After incubation, the solution above the cells was removed and obtained purple formazan crystals were dissolved in 1 mL DMSO. The absorbance was read at OD = 570 nm on Evolution 201 Spectrophotometer (Thermo Scientific, Waltham, MA).

[14] = system: MDA-MB-231 breast cancer cells; assay: MTT viability assay, MDA-MB-231
Method: as §3

[15] = ratio of cytotoxicity, 3a vs 2a, 3b vs 2b

For `Cc1nn(-c2ccc(S(=O)(=O)N[C@@H](CO)Cc3ccccc3)cc2)c2nn3nnnc3nc12` [Compound 3b, (R)-N-(1-hydroxy-3-phenylpropan-2-yl)-4-(7-methyl-5H-pyrazolo[4,3-e]tetrazolo[1,5-b][1,2,4]triazin-6-yl)benzenesulfonamide], the apoptotic cells ([1]; MCF-7, 0.25 µM) was 50.6 ± 3.5%, the “early and late apoptotic cells” value ([1]; MCF-7, 0.5 µM) was 98.9 ± 1.6% and the “cells that generated ROS” value ([2]; MCF-7, 0.25 µM) was 19.8 ± 2.2%. For the same compound, the “increase of ROS level compared to control” value ([2]; MCF-7, 0.5 µM) was 12 times, the “cells that generated ROS” value ([2]; MCF-7, 0.5 µM) was 27.5 ± 1.3% and the “cells with active NF-κB” value ([3]; MCF-7, 0.25 µM) was 25.5 ± 4.5%. The “cells with active NF-κB” value ([3]; MCF-7, 0.5 µM) was 19.8 ± 4.4%, the “cells with active NF-κB” value ([4]; MDA-MB-231, 0.25 µM) was 94.8 ± 0.6% and the “cells with active NF-κB” value ([4]; MDA-MB-231, 0.5 µM) was 89.6 ± 4.1%. For the same compound, the “cells with active Bax” value ([5]; MDA-MB-231, 0.25 µM) was 6.3 ± 0.4%, the “cells with active Bax” value ([5]; MDA-MB-231, higher concentration (0.5 µM)) was 16.9 ± 3.7% and the “effect on p53 (in words)” value [6] was “activates p53”. The “cells with active caspase 10” value ([7]; MCF-7, 0.25 µM) was 12.9 ± 0.8%, the “cells with active caspase 10” value ([7]; MCF-7, 0.5 µM) was 70.8 ± 1.1% and the “cells with active executive caspases (3 and 7)” value ([8]; MDA-MB-231, 0.25 µM) was 23.8 ± 0.8%. The “cells with active executive caspases (3 and 7)” value ([8]; MDA-MB-231, 0.5 µM) was 68.4 ± 1.2%, the autophagic cells ([9]; MCF-7, 0.5 µM, 24 h) was 30 ± 2.1% and the “autophagic cells with 3-MA relative to 3b alone (in words)” value ([9]; MCF-7, 3b 0.5 µM + 3MA vs 3b 0.5 µM) was “one and a half times less autophagic cells”. The “effect on cells with active mTOR (in words)” value [10] was “decrease in the number of cells with active mTOR”, the “effect on cells with active mTOR (in words)” value [11] was “decrease in the number of cells with active mTOR” and the “cells with active beclin-1” value [12] was 13.9 ± 2.6%. For the same compound, the melting point was 170 to 172 °C, the IC50 ([13]; Homo sapiens, MCF7, 24 h, read-out: Cytotoxicity IC50 MCF-7) was 250 ± 70 nM and the “times stronger than the corresponding sulphonyl derivative (2a or 2b), MCF-7” value [13, 15] was 22 times. For the same compound, the IC50 ([14]; Homo sapiens, MDA-MB-231, 24 h, read-out: Cytotoxicity IC50 MDA-MB-231) was 310 ± 140 nM and the “times stronger than the corresponding sulphonyl derivative (2a or 2b), MDA-MB-231” value [14, 15] was 25 times.
